Measured values: patent publication US20120040920A1, “OLIGOSACCHARIDE ALDONIC ACIDS AND THEIR TOPICAL USE” (priority 1999, published 2012)

Assays:
[1] = antioxidant property, banana peel test method; conditions: for colour of banana peels: 1×2 cm peels in 5 ml 0.1 M solution, room temperature
Description: An antioxidant may be defined as a substance capable of preventing or inhibiting oxidation. […] The antioxidant property is readily determined by using any one of the following test methods: prevention or retardation of air oxidation of (a) anthralin, (b) hydroquinone, or (c) banana peel. A freshly prepared anthralin solution or cream is bright yellow, and an air oxidized one is brownish or black. A hydroquinone solution or cream is colorless or white color, and an air oxidized one is brownish or black. A freshly peeled banana peel is light yellow in color and an oxidized one ranges in color from tan, dark tan, brown to brownish black.
For example, in control experiments, fresh banana peels cut into sizes of 1×2 cm in 50 mm plastic petri dishes containing 5 ml water at neutral or acidic pH changed in color from white-yellowish to tan within 6 hours at room temperature, and changed to dark tan color during the next period of 24 to 72 hours.
Antioxidant property of an oligosaccharide aldonic acid may also be determined by utilizing banana peel test method as follows.
A fresh ripe banana peel cut into sizes of 2×2 cm has the outer layer light yellow in color. These freshly cut banana peels after exposed to air or immersed in an aqueous solution without an antioxidant in 50 mm plastic petri dishes rapidly changed in color from yellowish to tan within 3 hours, dark tan within 24 hours and brown black after 72 hours. A test substance including a positive control such as vitamin C, citric acid or N-acetylcysteine was prepared as 0.1 M concentration, and each test dish contained 5 ml test solution. Freshly cut banana peels 2×2 cm in sizes were immersed in 5 ml test solutions including known antioxidants and vehicle controls with pH at 7.0 and 4.0. […] The same results were also found for the known antioxidant substances; vitamin C, citric acid and N-acetylcysteine.

[2] = system: dry vaginal mucosa; test: topical treatment of dry vaginal mucosa; format: in vivo, human; conditions: 5% in molecular complex with 0.5% L-arginine, oil-in-water cream pH 3.1, twice daily, one week, person
Experimental: Lactobionic acid 50% aqueous solution 10 g was uniformly mixed with an oil-in-water base 80 g, and the cream thus obtained had pH 2.5. L-Arginine 5% solution 10 g prepared from 8 parts water and 2 parts propylene glycol by volume was added to form molecular complex of amphoteric system as shown by the increase of pH to 3.1. The composition thus formulated contained 5% lactobionic acid in molecular complex with 0.5% L-arginine.
A subject, having dry vaginal mucosa topically applied the above bionic acid cream twice daily to the affected areas of the mucosa.

[3] = system: scrotum and perineum itch; test: topical treatment of scrotum and perineum itch; format: in vivo, human; conditions: 18% oil-in-water cream pH 2.0, person
Description: Lactobionic acid 54% aqueous solution 30 g was uniformly mixed with an oil-in-water base 60 g. The cream thus prepared had pH 2.0 and contained 18% lactobionic acid.
A subject, having a lasting scrotum and perineum itch after each time taking a shower topically applied the above bionic acid cream to the affected areas of the skin.

[4] = system: linear wounds 1 cm in length and 0.5 mm in depth; test: healing of linear needle wounds on forearm; format: in vivo, human; conditions: 2% in distilled water
Description: A sterile 22-gauge needle was held in the jaws of a surgical needle holder, and two linear wounds 1 cm in length and 0.5 mm in depth were made on alcohol-swabbed left forearm of a healthy subject. The wounds were swabbed dry with cotton balls. A control solution containing 0.9% sodium chloride in distilled water was applied to one wound, and a test solution containing 2% lactobionic acid in distilled water was applied to the other wound. Both wounds were covered with 3M Tegaderm tapes for five days. […] The erythema disappeared from both skin sites at the end of nine days.

## O=C(O)[C@H](O)[C@@H](O)[C@H](O[C@@H]1O[C@H](CO)[C@H](O)[C@H](O)[C@H]1O)[C@H](O)CO [lactobionic acid]
[1]; 24 hours
  colour of banana peels: remained white-yellowish
[1]; after 72 hours
  colour of banana peels: changed in color to tan
[1]; 2×2 cm peels in 5 ml 0.1 M test solution, water control tan within 4 hours
  colour change of banana peels: did not change color
[2]
  dryness of vaginal mucosa: dryness of vaginal mucosa disappeared completely
[3]
  itch: itch stopped immediately
[4]; covered five days, end of one week, saline control not epithelialized
  wound healing: healed with re-epithelialization
[4]; same at control site
  time to disappearance of erythema: nine
